Tested on: HBV
Test: In vitro anti-HBV activity in HepG2.2.15 cell line (intracellular HBV DNA by qPCR at 1 μM)
Type: cell-based
Conditions: Hepatitis B virus, 144 h; HepG2.2.15 cells, 1 μM compound, 6 days, intracellular HBV DNA as percentage compared to vehicle control (0.5% DMSO)
Procedure, shortened: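 Intracellular HBV DNA was quantified by qPCR and given as percent of vehicle (0.5% DMSO), grouped into letter ranges. Stably transfected HepG2.2.15 cells had 6 days of exposure to 1 μM compound, with medium and compound renewed after day 3.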

SMILES | activity at 1 µM [%]
O=C(Nc1cc(F)c(F)c(F)c1)[C@H]1CCN(C(=O)c2cc3cnccc3[nH]2)C1 [Example 46, (S)-1-(1H-pyrrolo[3,2-c]pyridine-2-carbonyl)-N-(3,4,5-trifluorophenyl)pyrrolidine-3-carboxamide] | 60 to 70
Cc1cc(Cl)c(C(=O)N2CC[C@H](C(=O)Nc3cc(F)c(F)c(F)c3)C2)s1 [Example 5, (S)-1-(3-chloro-5-methylthiophene-2-carbonyl)-N-(3,4,5-trifluorophenyl)pyrolidine-3-carboxamide] | 80 to 90
Cc1cc(NC(=O)[C@H]2CCN(C(=O)c3ccc(-c4ccnnc4)[nH]3)C2)ccc1F [Example 130, (S)—N-(4-fluoro-3-methylphenyl)-1-(5-(pyridazin-4-yl)-1H-pyrrole-2-carbonyl)pyrrolidine-3-carboxamide] | < 45
Cc1ncncc1-c1ccc(C(=O)N2CC[C@H](C(=O)Nc3cc(F)c(F)c(F)c3)C2)[nH]1 [Example 89, (S)-1-(5-(4-methylpyrimidin-5-yl)-1H-pyrrole-2-carbonyl)-N-(3,4,5-trifluorophenyl) pyrrolidine-3-carboxamide] | < 45
N#Cc1ncccc1-c1ccc(C(=O)N2CC[C@H](C(=O)Nc3ccc(F)c(Cl)c3)C2)[nH]1 [Example 148, (S)—N-(3-chloro-4-fluorophenyl)-1-(5-(2-cyanopyridin-3-yl)-1H-pyrrole-2-carbonyl)pyrrolidine-3-carboxamide] | 45 to 60
O=C(c1cccnc1)c1ccc(C(=O)N2CC[C@H](C(=O)Nc3cc(F)c(F)c(F)c3)C2)[nH]1 [Example 142] | > 90
O=C(Nc1cc(F)c(F)c(F)c1)[C@H]1CCN(C(=O)c2cc3ccncc3[nH]2)C1 [Example 47, (S)-1-(1H-pyrrolo[2,3-c]pyridine-2-carbonyl)-N-(3,4,5-trifluorophenyl)pyrrolidine-3-carboxamide] | 80 to 90
O=C(Nc1cc(F)c(F)c(Br)c1)[C@H]1CCN(C(=O)c2cc3cnccc3[nH]2)C1 [Example 53, (S)—N-(3-bromo-4,5-difluorophenyl)-1-(1H-pyrrolo[3,2-c]pyridine-2-carbonyl)pyrrolidine-3-carboxamide] | 70 to 80
Cc1ncnc(C)c1-c1cccc2c(Cl)c(C(=O)N3CC[C@H](C(=O)Nc4ccc(F)c(C#N)c4)C3)[nH]c12 [Example 137, (S)-1-(3-chloro-7-(4,6-dimethylpyrimidin-5-yl)-1H-indole-2-carbonyl)-N-(3-cyano-4-fluorophenyl)pyrrolidine-3-carboxamide] | 45 to 60
Cc1ccc(C(=O)N2CC[C@H](C(=O)Nc3ccc(F)c(Cl)c3)C2)[nH]1 [Example 33, (S)—N-(3-chloro-4-fluorophenyl)-1-(5-methyl-1H-pyrrole-2-carbonyl)pyrrolidine-3-carboxamide] | 80 to 90
O=C(Nc1cc(F)c(F)c(Br)c1)[C@H]1CCN(C(=O)c2cc3ccccc3[nH]2)C1 [Example 10, (S)—N-(3-bromo-4,5-difluorophenyl)-1-(1H-indole-2-carbonyl)pyrrolidine-3-carboxamide] | 70 to 80
Cc1ncc(-c2ccc(C(=O)N3CC[C@H](C(=O)Nc4cc(F)c(F)c(F)c4)C3)[nH]2)cn1 [Example 86, (S)-1-(5-(2-methylpyrimidin-5-yl)-1H-pyrrole-2-carbonyl)-N-(3,4,5-trifluorophenyl)pyrrolidine-3-carboxamide] | < 45
Cc1cc(C)c(C(=O)N2CC[C@H](C(=O)Nc3cc(F)c(F)c(F)c3)C2)[nH]1 [Example 34, (S)-1-(3,5-dimethyl-1H-pyrrole-2-carbonyl)-N-(3,4,5-trifluorophenyl)pyrrolidine-3-carboxamide] | > 90
Cc1ccc(C(=O)N2CC[C@H](C(=O)Nc3cc(F)c(F)c(Cl)c3)C2)[nH]1 [Example 62, (S)—N-(3-chloro-4,5-difluorophenyl)-1-(5-methyl-1H-pyrrole-2-carbonyl)pyrrolidine-3-carboxamide] | 45 to 60
